From article PMC8205039, “Synthesis and biological evaluation of 4-phenoxy-phenyl isoxazoles as novel acetyl-CoA carboxylase inhibitors” (Journal of Enzyme Inhibition and Medicinal Chemistry, 2021) come the findings set out here.

SMILES strings stand for the structures. Some results are limits rather than exact numbers.

In data set [1] the test system is MDA-MB-231 cells. Briefly: MTT assay, MDA-MB-231. Type of data set: cell-based. Particulars: Homo sapiens, 72 h, mean ± SD (n = 3). The method, then:
(§1) The cytotoxicity of target compounds was assessed by MTT assay. Briefly, cells were seeded in 96-well plates at a density of 2500–3000 per well and incubated for 24 h in a CO2 incubator. Then, the cells were treated with candidate compounds at seven different concentrations for 72 h. At the end of treatment, the MTT reagent (5 mg/mL) was added to determine the cell viability. After 4 h of incubation, the resulting medium was removed, and 100 µL of DMSO was added to dissolve the formed formazan. Finally, the absorbance at 550 nm was measured by a microplate reader (Varioskan LUX, […]), with the IC50 values calculated using GraphPad Prism 5 software (GraphPad Software, La Jolla, CA, USA).
For orientation: Formazan colour is commonly taken as a measure of viable cells.

The subject of data set [2] is HepG2 cells. The experiment in a line: MTT assay, HepG2. Type of data set: cell-based. Particulars: Homo sapiens, single concentration of 10 µM (Figure S2), read-out: inhibitory rate, HepG2.
A short description of data set [3]: Cell viability of non-cancerous HUVEC. Type of data set: cell-based, human. Particulars: human, HUVEC cells (non-cancerous). The method, then:
(§2) To investigate the selectivity of the synthesised compounds towards cancer cells, the non-cancerous HUVEC cell line was selected for testing.
as §1

In data set [4] the test system is A549 cells. Briefly: MTT assay, A549. The conditions noted are these: Homo sapiens, 72 h, mean ± SD (n = 3). Format: cell-based. Here is the method: as §1
For data set [5], the system named is HepG2 cells. The experiment in a line: MTT assay, HepG2. Format: cell-based. Particulars: Homo sapiens, 72 h, mean ± SD (n = 3). The method, then: as §1
Data set [6] has as its system A549 cells. Briefly: MTT assay, A549. Type of data set: cell-based. The conditions noted are these: Homo sapiens, single concentration of 10 µM (Figure S2), read-out: inhibitory rate, A549.
In another data set the target is T1, hACC1 (Homo sapiens, UniProt Q13085).
T1 construct: purchased BPS Biosciences 50200
Briefly: ACC inhibitory assay (ADP-Glo luminescent ADP detection). Type of data set: biochemical. Particulars: for hACC1 IRs (%): at 5 μM, HTVS candidates (Table 1); for inhibition at 0.1 µM: hACC1, 0.1 μM, read-out: IRs (%) 0.1 μM; for inhibition at 0.1 µM / inhibition at 5 µM: mean of two independent experiments (Table 2); for inhibition at 5 µM: hACC1, 5 μM, read-out: IRs (%) 5 μM; for IC50: hACC1, mean ± SD. Here is the method: The hACC1 inhibitory activity of target compounds was evaluated using the ADP-Glo^TM kinase assay according to our previous report. In brief, 4.5 µL of working solution containing recombinant ACC1 (BPS Biosciences, 50200) and 0.5 µL of diluted compound solution were added to a 384-well Optiplate plate (Perkin Elmer, 6007290, PerkinElmer, Waltham, MA, USA), and incubated at room temperature for 15 min. Then, 5 µL of substrate mixture was added to the 384-well plate to start the reaction. After incubating for 60 min at room temperature, 10 µL of ADP-Glo reagents were added to the 384-well plate, and incubated for another 40 min to deplete the remaining ATP. Finally, 20 µL of kinase detection reagents were added to the plate and incubated for 40 min to convert ADP to ATP. The luminescent signal of ATP was determined using an Envision multifunction reader (Perkin Elmer, 2104–0010, PerkinElmer, Waltham, MA, USA). The IC50 values were calculated using GraphPad Prism 5 software (GraphPad Software, La Jolla, CA, USA).
Background: ADP-Glo turns the ADP formed in a reaction into a luminescent signal.

The test system of data set [7] is MDA-MB-231 cells. The experiment in a line: MTT assay, MDA-MB-231. Type of data set: cell-based. The conditions noted are these: Homo sapiens, single concentration of 10 µM (Figure S2), read-out: inhibitory rate, MDA-MB-231.
Data set [8] has as its system MDA-MB-231 cells. The experiment in a line: Cell apoptosis assay (Annexin V-FITC/PI flow cytometry). Format: cell-based, human. The conditions noted are these: 48 h. Here is the method: MDA-MB-231 cells were plated on 6-well plates (3 × 10^4 cells/well) and incubated with various concentrations of 6g (0.75, 1.5, and 3 µM) and 6l (0.1, 0.2, and 0.4 µM) for 48 h. Then, cells were harvested by trypsinization and centrifugation, followed by staining with annexin-V-FITC in binding buffer for 15 min protected from light. Subsequently, the cells were stained with PI, and the proportion of apoptotic cells was measured by flow cytometer (Facs Canto II, Becton Dickinson, San Jose, CA, USA)[36].
A general note: In flow cytometry, cells or beads pass a laser one at a time.

For data set [9], the system named is intracellular malonyl-CoA levels in MDA-MB-231 cells. The experiment in a line: Measurement of malonyl-CoA levels (Elisa). Format: cell-based, human. Particulars: maximum test concentration, 48 h. Here is the method:
MDA-MB-231 cells were seeded on 6-well plates and treated with various concentrations of 6g and 6l for 48 h. Cells were collected, washed with PBS, and lysed with 1% Triton X-100. The lysates were centrifuged at 4 °C for 15 min. The malonyl-CoA levels were determined using Elisa assay kits (Ruixin Biotech, Beijing, China).

Another data set concerns HUVEC. Briefly: Cell viability of non-cancerous HUVEC. The conditions noted are these: 10 μM. Type of data set: cell-based, human. The method, then:
as §2, §1

For data set [10], the system named is MDA-MB-231 cells. Briefly: Cell-cycle assay (PI flow cytometry). Type of data set: cell-based, human. Particulars: 48 h. Here is the method: MDA-MB-231 cells were seeded on 6-well plates (3 × 10^4 cells/well) and incubated with indicated concentrations of 6g (0.75, 1.5, and 3 µM) and 6l (0.1, 0.2, and 0.4 µM) for 48 h in a 5% CO2 incubator. Then, the cells were collected by trypsinization and centrifugation, followed by fixing in 70% pre-cooled ethanol overnight. Finally, the cells were stained with PI/RNase A according to the manual and measured by flow cytometer (Facs Canto II, Becton Dickinson, San Jose, CA’, USA)[35].

What is called IC50 is the concentration needed to halve the response being measured. High values mean weaker potency, low ones greater potency. The viability is the share of living cells, or the viability signal relative to a control. A low value points to a greater loss of cells. As a reminder, the melting point is the temperature, or range, at which the solid turns liquid. The compound `CC(=O)NC(C)c1cc(-c2ccc(Oc3ccc(OCc4ccccc4)cc3)cc2)no1` (centres unmarked) [Compound 6a, N-(1-(3-(4-(4-(Benzyloxy)phenoxy)phenyl)isoxazol-5-yl)ethyl)acetamide] showed a melting point of 152.5 to 153.5 °C. The compound further returned an IC50 with MDA-MB-231 cells [1] of 1.57 ± 0.09 µM. The inhibition at 10 µM in the data set with HepG2 cells [2] is over 80%. The same compound registered a viability at 72 h, 10 µM in data set [3] of 45.8 ± 1.16%. The half-maximal inhibitory concentration (IC50) in the data set on A549 cells [4] is 1.4 ± 0.22 µM. Also, the concentration for half-maximal inhibition (IC50) with HepG2 cells [5] was 1.91 ± 0.66 µM. For the same compound, the inhibition at 10 µM with A549 cells [6] is over 80%. On hACC1, the “hACC1 IRs (%)” value is given as 57%, the inhibition at 0.1 µM turned out to be 18.1% and the inhibition at 5 µM turned out to be 54.9%. For the same compound, at hACC1 (listed as D098-1432 (6a)), the “hACC1 IRs (%)” value stood at 57.39%. Besides, in the data set on MDA-MB-231 cells [7], the inhibition at 10 µM is over 80%.

`CC(=O)NC(C)c1cc(-c2ccc(Oc3ccc(OCC4CC4)cc3)cc2)no1` (centres unmarked) [Compound 6g, N-(1-(3-(4-(4-(Cyclopropylmethoxy)phenoxy)phenyl)isoxazol-5-yl)ethyl)acetamide] gave a melting point of 131.5 to 132.5 °C. Also, the “total percentage of the early and late apoptotic cells” value (shortened to “total percentage”) with MDA-MB-231 cells [8] (0.75 μM) was 8.34%. For the same compound, the “total percentage” value in the data set on MDA-MB-231 cells [8] (1.5 μM) is reported as 13.83%. In addition, in the data set on MDA-MB-231 cells [8] (3 μM), the “total percentage” value is recorded as 20.25%. Half-maximal inhibition in the data set with MDA-MB-231 cells [1] (IC50) was put at 1.5 ± 0.58 µM. Besides, in the data set on HepG2 cells [2], the inhibition at 10 µM is over 80%. Moreover, the “reduction of intracellular malonyl-CoA levels compared to the control group” value in data set [9] is reported as about 23.59%. Further, the viability at 72 h, 10 µM in data set [3] stood at 87.3 ± 6.19%. Besides, the “IRs towards HUVEC” value in the data set on HUVEC is recorded as “less than 20%”. For the same compound, in the data set on MDA-MB-231 cells [10] (0.75 μM), the “cells at G0/G1 phase” value was determined as 69.37%, the “cells at G2/M phase” value worked out at 12.01% and the “cells at S phase” value came out at 18.62%. In the data set on MDA-MB-231 cells [10] (1.5 μM), the “cells at G0/G1 phase” value was determined as 73.66%, the “cells at G2/M phase” value is on record as 10.51% and the “cells at S phase” value is 15.83%. In addition, in the data set with MDA-MB-231 cells [10] (3 μM), the “cells at G0/G1 phase” value is 79.97%, the “cells at G2/M phase” value is on record as 9.96% and the “cells at S phase” value was 10.08%. In the data set on A549 cells [4], the 50% inhibitory concentration (IC50) is 1.1 ± 0.12 µM. The compound also gave an IC50 in the data set with HepG2 cells [5] of 1.73 ± 0.55 µM. The inhibition at 10 µM in the data set with A549 cells [6] is over 80%. Moreover, on hACC1, the inhibition at 0.1 µM worked out at 51.4% and the IC50 was 99.8 ± 3.7 nM. In the data set on MDA-MB-231 cells [7], the inhibition at 10 µM was over 80%.

`CC(NC(=O)NCc1ccccc1)c1cc(-c2ccc(Oc3ccccc3)cc2)no1` (centres unmarked) [Compound 6q, 1-Benzyl-3-(1-(3-(4-phenoxyphenyl)isoxazol-5-yl)ethyl)urea] gave a melting point of 161.5 to 162.5 °C. In the data set with MDA-MB-231 cells [1], this compound came in with an IC50 of 0.89 ± 0.26 µM. This compound had a viability at 72 h, 10 µM in [3] of 84.9 ± 3.98%. Also, in the data set with HUVEC, the “IRs towards HUVEC” value is recorded as “less than 20%”. This compound also registered a half-inhibitory concentration (IC50) in the data set with A549 cells [4] of 5.73 ± 0.11 µM. In addition, 2.47 ± 0.5 µM corresponded to half-maximal inhibition with HepG2 cells [5] (IC50). Moreover, at hACC1, the inhibition at 0.1 µM came to 28.3%, the inhibition at 5 µM is over 60% and the half-inhibitory concentration (IC50) was determined as 711 ± 52.6 nM.

Consider `CC(NC(=O)Cc1ccccc1)c1cc(-c2ccc(Oc3ccccc3)cc2)no1` (centres unmarked) [Compound 6l, N-(1-(3-(4-Phenoxyphenyl)isoxazol-5-yl)ethyl)-2-phenylacetamide], for which the melting point lay within 164.5 to 165.5 °C. Also, in the data set with MDA-MB-231 cells [8] (0.4 μM), the “Q2 (upper right quadrant, late apoptotic cells)” value turned out to be 17.50% and the “Q3 (bottom right quadrant, early apoptotic cells)” value is recorded as 12.20%. In the data set with MDA-MB-231 cells [1], this compound came in with a concentration for half-maximal inhibition (IC50) of 0.21 ± 0.01 µM. In the data set on HepG2 cells [2], the inhibition at 10 µM is over 80%. Also, in data set [9], the “reduction of intracellular malonyl-CoA levels compared to the control group” value is listed as about 25.85%. Besides, the viability at 72 h, 10 µM in data set [3] came to 89.5 ± 3.21%. For the same compound, in the data set on HUVEC, the “IRs towards HUVEC” value is listed as “less than 20%”. Also, in the data set with MDA-MB-231 cells [10] (0.1 μM), the “cells at G0/G1 phase” value worked out at 71.79%, the “cells at G2/M phase” value came to 12.01% and the “cells at S phase” value was 16.20%. Also, in the data set with MDA-MB-231 cells [10] (0.2 μM), the “cells at G0/G1 phase” value was 76.79%, the “cells at G2/M phase” value came to 8.79% and the “cells at S phase” value came to 14.42%. In the data set with MDA-MB-231 cells [10] (0.4 μM), the “cells at G0/G1 phase” value is given as 81.93%, the “cells at G2/M phase” value is recorded as 5.32% and the “cells at S phase” value was 12.76%. In the data set on A549 cells [4], this compound registered an IC50 of 0.22 ± 0.07 µM. The compound also displayed an IC50 in the data set on HepG2 cells [5] of 0.26 ± 0.02 µM. In addition, in the data set on A549 cells [6], the inhibition at 10 µM was over 80%. Also, at hACC1, the inhibition at 0.1 µM worked out at 37.9% and the IC50 worked out at 279 ± 13.1 nM. For the same compound, the inhibition at 10 µM with MDA-MB-231 cells [7] was over 80%.
